Consider 14 molecules from patent publication US20100056468A1, “Pyrimidine Derivatives As Anticancer Agents” (University Health Network, priority 2007, published 2010).

Common to all, as to assay: In vitro cell proliferation assay (WST.1, Table 5)
The test system of one test is LOX. The format is cell-based, human. The conditions noted are these: Homo sapiens, 72 h, day 3. On the procedure: (§1) These cell lines were grown in Iscove's MDM supplemented with 5% fetal calf serum (FCS), 50 μM 2-mercaptoethanol, 100 μg/ml penicillin, and 100 μg/ml streptomycin. Cell lines growing in suspension were maintained at 0.5-1.5×10^6 cell/ml, while adherent cell lines were maintained at subconfluent densities.
(§2) Cell lines were seeded in triplicate at 10^4 cells/100 μl in 96-well plates. Peripheral blood mononuclear cells were seeded in triplicate at 10^5 cells/100 μl in 96-well plate. Different test compounds were added immediately at final concentrations ranging between 0 to 100 μM. All compounds were dissolved in sterile deionized water, so water was added to the control wells. On day 3, WST.1 assay (Roche) was used to measure the effect of different test compounds on cell growth. WST.1 assay is a calorimetric assay for the nonradioactive quantification of cell proliferation, cell viability, and cytotoxicity. The assay was performed according to manufacturer's instructions (Roche). It relies on the cleavage by cellular enzymes of WST.1 (water soluble tetrazolium salt: 4-[3-(4-iodophenyl)-2-(4-nitrophenyl)-2H-5-tetrazolio]-1,3-benzene disulfonate) to formazan. The amount of formazan dye formed correlates to the number of metabolically active cells in the culture and is readily read in an ELISA microplate reader using an absorbance wavelength of 440 nm. These OD values are plotted against concentrations of different compounds and IC50 is determined for each compound.

The test system of the next test is MDA468. The format is cell-based. The conditions noted are these: Homo sapiens, 72 h; MDA468, day 3. On the procedure: as §1, §2
Another test relates to OCI-My-2. The format is cell-based. As to conditions: Homo sapiens, 72 h; OCI-My-2, day 3. On the procedure: as §1, §2
The subject of a further test is SKW3. It is filed as cell-based. As to conditions: Homo sapiens, 72 h; SKW3, day 3. On the procedure: as §1, §2
For the next test, the system named is MCF7. It is filed as cell-based. As to conditions: Homo sapiens, 72 h; MCF7, day 3. On the procedure: as §1, §2
The test system of a further test is OCI-AML-2. The format is cell-based. The conditions noted are these: Homo sapiens, OCI-AML2, 72 h; OCI-AML-2, day 3. On the procedure:
as §1, §2

In another test the test system is OCI-Ly-7. The format is cell-based. As to conditions: Homo sapiens, OCI-Ly7, 72 h; OCI-Ly-7, day 3. On the procedure: as §1, §2
In a further test the test system is OCI-AML-1. It is filed as cell-based. The conditions noted are these: Homo sapiens, 72 h; OCI-AML-1, day 3. On the procedure:
as §1, §2

The test system of another test is T47D. The format is cell-based. As to conditions: Homo sapiens, 72 h, day 3. On the procedure: as §1, §2
The next test relates to COLO205. It is filed as cell-based. As to conditions: Homo sapiens, COLO 205, 72 h; COLO205, day 3. On the procedure: as §1, §2
For another test, the system named is CCD967. The format is cell-based. As to conditions: Homo sapiens, CCD-967, 72 h; CCD967 normal skin line, day 3. On the procedure: as §1, §2
For another test, the system named is OCVR4. It is filed as cell-based. The conditions noted are these: Homo sapiens, 72 h; OCVR4, day 3. On the procedure:
as §1, §2

The test system of another test is HS58T. It is filed as cell-based. The conditions noted are these: Homo sapiens, 72 h, day 3. On the procedure:
as §1, §2

Another test concerns PC3. The format is cell-based. The conditions noted are these: Homo sapiens, PC-3, 72 h; PC3, day 3. On the procedure: as §1, §2
A further test concerns SNB19. It is filed as cell-based. As to conditions: Homo sapiens, SNB-19, 72 h; SNB19, day 3. On the procedure: as §1, §2

One may read the IC50 as the concentration that inhibits the measured activity by half. The low end stands for greater potency in that assay, the high end for weaker potency in that assay.

As to `Cc1cc(=O)[nH]c(=O)n1C1CC(O)C(CO)O1` (stereo not drawn), the IC50 with LOX, with MDA468, in the test with OCI-My-2, with SKW3, in the test with MCF7 and with OCI-AML-2 was greater than 50 µM in each case. Moreover, the IC50 with OCI-Ly-7 and in the test with OCI-AML-1 was greater than 50 µM in each case.

Regarding `CCOC(=O)c1cc(=O)[nH]c(=O)n1[C@@H]1O[C@H](CO)C(O)C1O` (stereo partly drawn), the IC50 in the test on LOX, in the test with MDA468, with T47D, in the test with COLO205, in the test on CCD967 and with OCVR4 was greater than 50 µM throughout. Further, the IC50 in the test on OCI-My-2 is 42.3 µM; in the test with SKW3, greater than 50 µM; with MCF7, greater than 50 µM; in the test on OCI-AML-2 it was greater than 50 µM; in the test on HS58T, greater than 50 µM; in the test with PC3 it was greater than 50 µM. Besides, the half-maximal inhibitory concentration (IC50) with OCI-Ly-7, with OCI-AML-1 and in the test with SNB19 was greater than 50 µM in each case.

As for `[N-]=[N+]=Nc1cc(=O)[nH]c(=O)n1[C@@H]1O[C@H](CO)C(O)C1O` (stereo partly drawn), the IC50 in the test on LOX, in the test on MDA468, in the test with T47D, in the test on COLO205, in the test on CCD967 and in the test with OCVR4 was greater than 50 µM each time. Moreover, the IC50 in the test on OCI-My-2, in the test with SKW3, in the test with MCF7, with OCI-AML-2, in the test with HS58T and in the test with PC3 was greater than 50 µM throughout. Also, the IC50 in the test with OCI-Ly-7, with OCI-AML-1 and in the test with SNB19 was greater than 50 µM throughout.

In the case of `CN(C)c1cc(=O)[nH]c(=O)n1C1OC(CO)C(O)C1O` (stereo not drawn), the IC50 with LOX, in the test on MDA468, in the test on T47D, in the test with COLO205, in the test on CCD967 and in the test with OCVR4 was greater than 50 µM throughout. The IC50 in the test on OCI-My-2, in the test on SKW3, in the test on MCF7, in the test on OCI-AML-2, in the test with HS58T and in the test with PC3 was greater than 50 µM throughout. The IC50 in the test on OCI-Ly-7, with OCI-AML-1 and with SNB19 was greater than 50 µM each time.

As for `O=c1cc(I)n([C@@H]2O[C@H](CO)C(O)C2O)c(=O)[nH]1` (stereo partly drawn), the IC50 in the test with LOX, with MDA468, with T47D, in the test on COLO205, in the test with CCD967 and in the test on OCVR4 was greater than 50 µM each time. In addition, the IC50 in the test with OCI-My-2 was 27.8 µM; in the test on SKW3, 18.9 µM; in the test with MCF7 it was greater than 50 µM; in the test with OCI-AML-2, greater than 50 µM; in the test on HS58T it was greater than 50 µM; with PC3, greater than 50 µM. For the same molecule, the IC50 is greater than 50 µM with OCI-Ly-7, 15.3 µM in the test on OCI-AML-1 and greater than 50 µM in the test with SNB19.

For the molecule `O=c1[nH]c(=O)n([C@@H]2O[C@H](CO)C(O)C2O)c(I)c1Br` (stereo partly drawn), the half-inhibitory concentration (IC50) with LOX, in the test on MDA468, with T47D, in the test on COLO205, in the test with CCD967 and with OCVR4 was greater than 50 µM in each case. The IC50 in the test with OCI-My-2, in the test with SKW3, in the test with MCF7, in the test with OCI-AML-2, in the test on HS58T and with PC3 was greater than 50 µM each time. Also, the IC50 with OCI-Ly-7, in the test with OCI-AML-1 and in the test on SNB19 was greater than 50 µM in each case.

For `CNc1cc(=O)[nH]c(=O)n1C1OC(CO)C(O)C1O` (stereo not drawn), the IC50 in the test with LOX, in the test on MDA468, in the test with T47D, with COLO205, in the test with CCD967 and in the test with OCVR4 was greater than 50 µM each time. Moreover, the IC50 in the test with OCI-My-2, in the test on SKW3, in the test with MCF7, in the test on OCI-AML-2, in the test on HS58T and in the test on PC3 was greater than 50 µM each time. Further, the IC50 in the test with OCI-Ly-7, in the test on OCI-AML-1 and in the test on SNB19 was greater than 50 µM in each case.

As to `O=c1[nH]cc(F)c(=O)[nH]1` [5-Fluoro-uracil, reference compound], the half-maximal inhibitory concentration (IC50) is 2.1 µM in the test on SKW3, 1.6 µM in the test on OCI-AML-2 and 1 µM with OCI-AML-1.

`N#Cc1cc(=O)[nH]c(=O)n1[C@@H]1O[C@H](CO)C(O)C1O` (stereo partly drawn): the IC50 in the test with LOX, in the test on MDA468, in the test with T47D, with COLO205, in the test with CCD967 and in the test on OCVR4 was greater than 50 µM throughout. Also, the IC50 in the test on OCI-My-2, with SKW3, in the test on MCF7, with OCI-AML-2, in the test with HS58T and in the test with PC3 was greater than 50 µM each time. Besides, the IC50 in the test on OCI-Ly-7, in the test on OCI-AML-1 and in the test with SNB19 was greater than 50 µM throughout.

Take `O=C1C/C(=N\O)N(C2OC(CO)C(O)C2O)C(=O)N1` (stereo not drawn): the IC50 in the test with LOX, in the test with MDA468, with OCI-My-2, in the test on SKW3, with MCF7 and with OCI-AML-2 was greater than 50 µM each time. Further, the IC50 in the test on OCI-Ly-7 and in the test on OCI-AML-1 was greater than 50 µM throughout.

Take `Nc1cc(=O)[nH]c(=O)n1[C@@H]1O[C@H](CO)C(O)C1O` (stereo partly drawn): the IC50 in the test on LOX, with MDA468, in the test on T47D, with COLO205, in the test with CCD967 and with OCVR4 was greater than 50 µM throughout. Moreover, the IC50 with OCI-My-2, in the test on SKW3, in the test with MCF7, in the test on OCI-AML-2, in the test with HS58T and in the test on PC3 was greater than 50 µM in each case. Moreover, the IC50 with OCI-Ly-7, in the test on OCI-AML-1 and in the test with SNB19 was greater than 50 µM in each case.

Regarding `Cc1cc(=O)[nH]c(=O)n1C1OC(CO)C(O)C1O` (stereo not drawn), the IC50 in the test on LOX, in the test with MDA468, in the test with T47D, in the test on COLO205, in the test on CCD967 and in the test on OCVR4 was greater than 50 µM in each case. Also, the IC50 in the test on OCI-My-2, in the test with SKW3, in the test on MCF7, in the test with OCI-AML-2, with HS58T and with PC3 was greater than 50 µM in each case. The IC50 with OCI-Ly-7, in the test on OCI-AML-1 and with SNB19 was greater than 50 µM each time.

For the molecule `O=Cc1cc(=O)[nH]c(=O)n1C1OC(CO)C(O)C1O` (stereo not drawn), the IC50 in the test with LOX, in the test on MDA468, in the test with OCI-My-2, with SKW3, in the test with MCF7 and in the test with OCI-AML-2 was greater than 50 µM in each case. The IC50 with OCI-Ly-7 and in the test with OCI-AML-1 was greater than 50 µM each time.

With `CC(=O)OCC1OC(n2c(I)cc(=O)[nH]c2=O)C(O)C1O` (stereo not drawn), the concentration for half-maximal inhibition (IC50) in the test with LOX is 1.1 µM; in the test on MDA468, greater than 50 µM; with T47D it was greater than 50 µM; in the test with COLO205 it was greater than 50 µM; with CCD967, greater than 50 µM; with OCVR4 it was greater than 50 µM. Further, the IC50 with OCI-My-2 is 1.3 µM; with SKW3 it was 1.6 µM; with MCF7, 4.4 µM; with OCI-AML-2, 11.7 µM; in the test with HS58T it was greater than 50 µM; with PC3, greater than 50 µM. Moreover, the IC50 in the test on OCI-Ly-7 was 36.2 µM; in the test with OCI-AML-1, 15.2 µM; in the test on SNB19, greater than 50 µM.
